Laboratory results published in US5756538A, “Flavonoid and biflavonoid derivatives, their pharmaceutical compositions, their anxiolytic activity” (University of Strathclyde, priority 1993, dated 1998).
Where two headings read alike, the source gives them in different places.

Key:
mice [1] = experiment: Locomotor activity test (OPTO-VARIMEX)
Method: Male CF1 mice from our breeding stock weighing 28-35 g were used. The animals were placed in groups of 10-12 with free access to water and food, and maintained on a 12 h/12 h day-night cycle.
Diazepam (DZ; Hoffman-La Roche) and the flavonoids were dissolved in DMSO 40%, NaOH 0.1N (7:3: v/v) at pH 8.2 Control animals were injected with the same vehicle (VEH). RO 15-1788 (Hoffmann-La Roche) was suspended in DMSO 10%, propyleneglycol 10% in distilled water.
(c) Locomotor Activity Test: we used an OPTO-VARIMEX apparatus consisting of a glass box (36×15×20 cm) and two lateral bars with 15 light beams (0.32 cm diameter, beam spacing 2.65 cm). The apparatus detects automatically all the mouse movements, and discriminates between total and ambulatory activity. The locomotor activity (number of movements across the beams) was counted during 5 min. An increase in the number of transitions through the beams reflects an augmented locomotor activity.
The general procedure for all the tests is as follows: mice were injected with vehicle or the drug solution 20 min before the beginning of the test and put into another home cage. Ro 15-1788, a specific BZD receptor antagonist was injected 10 min before the tested drug. All the injections were given intraperitoneally (i.p.). Control mice were tested in each session, in parallel with those animals receiving the test drug or diazepam. Testing was carried out `blind`. All data were submitted to analysis of variance (ANOVA). Post-hoc comparisons between individual treatments and controls were made using Dunnett's t-test.
FIGS. 15, 16, 17 and 18 show ambulatory locomoter activity counts during a 5 min. test session in an OPTO-Varimex apparatus, 20 min. after i.p. injection with a mixture of brominated flavones (0.6,1,3 mg/kg), FIG. 15; 2' chlorinated chrysin (1,3 mg/kg); FIG. 16; 2' fluorinated chrysin (3 mg/kg), FIG. 17; 6,8 dibromoflavone, FIG. 18. Data are expressed as medians (interquartile range) of (n) number of animals.

benzodiazepine receptor = experiment: Competitive inhibition of 3H-flunitrazepam binding to benzodiazepine receptor (cerebral cortical membranes); design: species or system bovine
Method: (Competitive inhibition of H^3 -flunitrazepam to benzodiazepine receptor)
Binding of 3H-flunitrazepam (0.7 nM) to the benzodiazepine receptor was carried out in extensively washed cerebral cortical membranes.
H^3 -flunitrazepam has a Ki of […] to the benzodiazepine receptor.
IC50 values were obtained using flavonoids at different concentrations (10^-10 to 10^-3 M).
Structure - activity relationships of several flavonoids on
the ^3 H Flunitrazepam binding to bovine brain membranes.

mice [2] = experiment: Horizontal wire test (muscle relaxation); assay type: in vivo, mice (male CF1)
Method: (d) Horizontal Wire Test: It consisted of an horizontally strung wire (1 mm diameter, 15 cm long), placed at 20 cm from the table. Mice were lifted by the tail, allowed to grasp the wire with their forepaws and released. […] After two trials, performed at 5 min. intervals, the test took place. A myorelaxant drug, like diazepam at high doses, will impair the ability of mice to grasp the wire. Generally, this state of muscle relaxation is commonly associated with sedation.
(§1) All the injections were given intraperitoneally (i.p.). […] Testing was carried out `blind`. All data were submitted to analysis of variance (ANOVA).
The test took place after two trials, executed after a 5 min interval.

mice [3] = experiment: PTZ induced seizures in mice (anticonvulsant activity); assay type: in vivo
Method: (Induced seizures in mice)
Benzodiazepines in general show an anxiolytic effect, a sedative effect and an anticonvulsant effect. In order to assess the present compounds for anticonvulsant activity the following experiment was carried out.
The method of Medina et al Biochem.Pharm. 40 p2227-2231, (1990) was followed (with the exception that injections were carried out intraperitoneally) and the mice observed for seizures.
EFFECTS OF IP ADMINISTRATION OF APIGENIN ON PTZ
INDUCED SEIZURES IN MICE.
The convulsant doses of pentylenetetrazole are between 50-80 mg/kg in different experiments carried out in 6 independent days.

mice [4] = experiment: Holeboard test (exploratory activity, sedation); assay type: in vivo, mice (male CF1)
Method: (b) Holeboard Test: consisted of a wood box (60×60×30 cm) with four 2 cm diameter holes equidistant in the floor. The number of head-dips and the time spent head-dipping were counted during 5 min. An increase in the number and the time spent head-dipping implies a greater exploratory activity.
as §1

[5] = system: locus coeruleus noradrenaline; experiment: Noradrenaline levels in locus coeruleus after immobilization stress; assay type: in vivo, rats; settings: 1 mg/kg i.p., 30 min before 90-min stress session
Method: Rats were submitted to a 90-minute immobilization stress session in a plastic cylinder. The locus coeruleus was dissected out after killing by decapitation and noradrenaline assessed by HPLC with electrochemical detection. Doses were 1 mg/kg for each substance, injected i.p., 30 minutes before the stress session.

mice [6] = experiment: Elevated plus maze (anxiety); assay type: in vivo, mice (male CF1); settings: for Total arm entries / Percentage of entries in the open arms / Percentage of the time spent on the open arms: 20 min after injection; for Total arm entries: 5 min test, mean ± S.E.M.
Method: (a) Elevated Plus Maze: consisted of 4 perpendicularly disposed wood arms (20×5 cm; two had 35 cm high wood walls, and two were open) linked by a central 10×10 cm square. The maze was suspended 50 cm from the room floor. Animals were placed on the central part of the maze facing a closed arm. This test has been widely validated to measure anxiety in rodents. The number of entries into and the time spent in the open and closed arms were counted during 5 min. […] Total exploratory activity (number of entries in both arms) was also determined.
as §1

[7] = bovine brain membranes, 0.7 nM 3H-flunitrazepam, read-out: 3H Flunitrazepam binding IC50
[8] = 3H-flunitrazepam 0.7 nM, read-out: IC50 at the benzodiazepine receptor

## 6,8 dibromoflavone
Mice [1]; i.p., dose not stated
  Ambulatory locomotor activity counts vs controls: No significant difference

## O=c1cc(-c2ccccc2Cl)oc2cc(O)cc(O)c12 [2' chlorochrysin, 5,7-Dihydroxy-2'-chloroflavone]
Benzodiazepine receptor; [7]
  IC50: 9000 nM
Mice [1]; 1, 3 mg/kg i.p., 20 min after injection, 5 min session
  Ambulatory locomotor activity counts vs controls: No significant difference

## O=c1cc(-c2ccccc2F)oc2cc(O)cc(O)c12 [2' fluorochrysin, 5,7-Dihydroxy-2'-fluoroflavone]
Benzodiazepine receptor; [7]
  IC50: 8000 nM
Mice [1]; 3 mg/kg i.p., 20 min after injection, 5 min session
  Ambulatory locomotor activity counts vs controls: No significant difference

## COc1cc(O)c2c(=O)cc(-c3ccccc3)oc2c1 [5 hydroxy 7 methoxyflavone, 5-hydroxy-7-methoxyflavone]
Benzodiazepine receptor; [7]
  IC50: 46000 nM

## O=c1cc(-c2ccccc2)oc2c(Br)c(O)c(Br)c(O)c12 [6,8 dibromochrysin, 6,8-Dibromo-5,7-dihydroxyflavone]
Benzodiazepine receptor
  Benzodiazepine ligand behaviour / affinity relative to 3H-flunitrazepam: benzodiazepine ligand behaviour similar to that of ^3 H-flunitrazepam
Benzodiazepine receptor; [8]
  IC50: 700 to 3000 nM
Benzodiazepine receptor; [7]
  IC50: 700 nM

## O=c1cc(-c2ccccc2)oc2cc(Br)ccc12 [7-bromoflavone]
Benzodiazepine receptor
  Benzodiazepine ligand behaviour / affinity relative to 3H-flunitrazepam: far higher affinity for the benzodiazepine receptor
Benzodiazepine receptor; [8]
  IC50: 50 nM
Benzodiazepine receptor; [7]
  IC50: 50 nM
Mice [1]; i.p., dose not stated
  Ambulatory locomotor activity counts vs controls: No significant change

## O=c1cc(-c2ccc(O)c(-c3c(O)cc(O)c4c(=O)cc(-c5ccc(O)cc5)oc34)c2)oc2cc(O)cc(O)c12 [Amentoflavone]
Benzodiazepine receptor
  Benzodiazepine ligand behaviour / affinity relative to 3H-flunitrazepam: far higher affinity for the benzodiazepine receptor
Benzodiazepine receptor; [8]
  IC50: 10 nM
Benzodiazepine receptor; [7]
  IC50: 10 nM

## O=c1cc(-c2ccc(O)cc2)oc2cc(O)cc(O)c12 [Apigenin, 4', 5,7-trihydroxyflavone]
Mice [2]; 3 and 10 mg/kg i.p.
  Effect in the horizontal wire test: did not induce any effect
Mice [3]; 3 mg/kg i.p. + PTZ
  Number of animals with clonic convulsions: 8/8
Mice [3]; 20 mg/kg i.p. + PTZ
  Number of animals with clonic convulsions: 3/3
Mice [3]; 40 mg/kg i.p. + PTZ
  Number of animals with clonic convulsions: 12/14
Mice [3]; 80 mg/kg i.p. + PTZ
  Number of animals with clonic convulsions: 11/11
Mice [3]; i.p., PTZ induced seizures
  Anticonvulsant activity: no anticonvulsant activity
Benzodiazepine receptor
  Benzodiazepine ligand behaviour / affinity relative to 3H-flunitrazepam: benzodiazepine ligand behaviour similar to that of ^3 H-flunitrazepam
Benzodiazepine receptor; [8]
  IC50: 700 to 3000 nM
Benzodiazepine receptor; [7]
  IC50: 3000 nM
Mice [4]; 3 and 10 mg/kg i.p.
  Effect in the holeboard test: did not induce any effect
[5]
  Noradrenaline decrease in locus coeruleus provoked by immobilization stress: blocked almost completely the noradrenaline decrease
  Potency vs diazepam on stress-provoked noradrenaline decrease: most potent effect
[5]; listed as apigenin
  Noradrenaline decrease in locus coeruleus provoked by immobilization stress: dampened the noradrenaline decrease
Mice [6]; i.p.
  Anxiolytic effect in the elevated plus maze: shows anxiolytic effects

## CN1C(=O)CN=C(c2ccccc2)c2cc(Cl)ccc21 [Diazepam, reference compound]
Mice [2]; 6 mg/kg i.p.
  Percentage of animals grasping the horizontal wire: significantly decreased
Mice [3]; 3 mg/kg i.p. + PTZ
  Number of animals with clonic convulsions: 0/6
Mice [1]; 0.3-3 mg/kg i.p., 20 min after injection
  Locomotor activity: increasing locomotor activity
Mice [4]; 0.3 mg/kg i.p.
  Number of head-dips: increased the number of head-dips (p<0.05)
Mice [4]; 1 mg/kg i.p.
  Time spent head-dipping: increased the time spent head-dipping(p<0.01)
Mice [4]; 6 mg/kg i.p.
  Number of head-dips: decrease in both the number of head-dips and in the time spent head-dipping (p<0.01)
  Sedation: indicates sedation
  Time spent head-dipping: decrease in both the number of head-dips and in the time spent head-dipping (p<0.01)
Mice [6]; 0.3 mg/kg i.p.
  Total arm entries: 10.5 ± 0.8
Mice [6]; 0.6 mg/kg i.p.
  Total arm entries: 12.4 ± 1.9
Mice [6]; 0.3 and 0.6 mg/kg i.p.
  Percentage of entries in the open arms: increased the percentage of entries in the open arms (p<0.01)
  Percentage of the time spent on the open arms: the percentage of the time spent on the open arms (p<0.01)
Mice [6]; i.p.
  Anxiolytic effect in the elevated plus maze: displayed an anxiolytic effect
Mice [6]; i.p., doses of Table I
  Total arm entries, difference from controls: No differences were observed

## O=c1cc(-c2ccccc2)oc2ccccc12 [Flavone, 2-phenyl-4H-1-benzopyran-4-one]
Benzodiazepine receptor
  Benzodiazepine ligand behaviour / affinity relative to 3H-flunitrazepam: benzodiazepine ligand behaviour similar to that of ^3 H-flunitrazepam
Benzodiazepine receptor; [8]
  IC50: 700 to 3000 nM
Benzodiazepine receptor; [7]
  IC50: 1000 nM
Mice [6]; 1 mg/kg i.p.
  Percentage of entries in the open arms: increased the percentage of entries and time spent in the open arms (p<0.002)
  Percentage of the time spent on the open arms: increased the percentage of entries and time spent in the open arms (p<0.002)

## COc1cc(O)c2c(=O)cc(-c3ccc(OC)c(-c4c(O)cc(O)c5c(=O)cc(-c6ccc(O)cc6)oc45)c3)oc2c1 [Ginkgetin]
Benzodiazepine receptor; [7]
  IC50: 5000 nM

## CN1C(=O)CN=C(c2ccccc2F)c2cc([N+](=O)[O-])ccc21 [H^3 -flunitrazepam, reference compound]
Benzodiazepine receptor
  Ki: 3 nM

## COc1ccc(-c2cc(=O)c3c(O)cc(O)c(-c4cc(-c5cc(=O)c6c(O)cc(O)cc6o5)ccc4OC)c3o2)cc1 [Isoginkgetin]
Benzodiazepine receptor; [7]
  IC50: 4000 to 5000 nM

## O=c1c(O[C@@H]2O[C@H](CO)[C@@H](O)[C@H](O)[C@H]2O)c(-c2ccc(O)c(O)c2)oc2cc(O)cc(O)c12 [Isoquercetin, reference compound]
Benzodiazepine receptor; [7]
  IC50: 10000 nM

## O=c1c(O[C@@H]2O[C@H](CO)[C@@H](O)[C@H](O)[C@H]2O)c(-c2ccc(O)c(O)c2)oc2cc(O)cc(O)c12 [Isoquercitrin, reference compound]
Benzodiazepine receptor; [7]
  IC50: 80000 nM

## C[C@@H]1O[C@@H](OC[C@H]2O[C@@H](Oc3c(-c4ccc(O)c(O)c4)oc4cc(O)cc(O)c4c3=O)[C@H](O)[C@@H](O)[C@@H]2O)[C@H](O)[C@H](O)[C@H]1O [Rutin, reference compound]
Benzodiazepine receptor; [7]
  IC50: 60000 nM

## O=C1CC(c2ccccc2)Oc2ccccc21 (centres unmarked) [flavanone, reference compound]
Benzodiazepine receptor; [7]
  IC50: 40000 nM
